Assay: Human HepG2 cell viability assay in 384 well format
Assay type: toxicity, cell-based
Set-up: dose 125 nL, time 70.5 hour; concentration not given beside the values
Conditions: HepG2 cells, read-out: Inhibition

Structure (SMILES) | cytotoxicity at 70.5 h [%]
CC(=O)NCC(=O)N1Cc2cc(-c3cc[nH]n3)ccc2C1c1cnco1 (configuration not stated) | -2.28
CCN(C)C(=O)c1ccnn1-c1ccc2ccccn12 | 1.76
O=C(NC1CC1)[C@H]1CC[C@@H]2[C@@H](CCN2Cc2ccsc2)O1 | -10.2
O=C(c1ccnnc1)N1CCO[C@H]2[C@@H](OCc3cccnc3)CC[C@@H]21 | -6.56
CC(C)CNc1nc2c(cc1C(=O)NCC1CC1)CCNCC2 | 24.9
O=C(c1cnccn1)N1CCN2C[C@H](OCC3CC3)C[C@H]2C1 | 4.98
CCN(C)c1ncnc2c1CCN(C(=O)[C@H]1CCCO1)CC2 | -9.23
CN(C)C(=O)N1C[C@@H]2COC[C@]2(c2nnc(C3CC3)o2)C1 | -10.1
Cc1ccoc1C(=O)N1CC[C@@H]2O[C@@H](C)C[C@H]2C1 | 0.684
Cc1ncoc1C(=O)N1C[C@@H]2COC[C@]2(c2nnc(C3CC3)o2)C1 | -9.55
c1cnc(NCc2noc3c2CN(C2CCOC2)CC3)nc1 (configuration not stated) | -6.78
O=C(c1ccoc1)N1CCc2c(COCc3ccncc3)cncc2C1 | 8.95
CC(C)(C)C(=O)N1CCC2(CC1)CC(Oc1ccccc1)CO2 (configuration not stated) | 11.5
Cc1ncnc2c1CCN(C(=O)c1ccsc1)CC2 | 7.97
Cc1ccc(C(=O)N2CCc3ncnc(C)c3CC2)o1 | 9.18
Cc1ccc(N2CCCc3sc(C(=O)NCc4ccncc4)nc32)nn1 | -1.89
CN1CCCc2sc(C(=O)NCc3cccnc3)nc21 | -10.4
O=C(NCc1cccnc1)c1nc2c(s1)CCCN2c1ncccn1 | 5.15
Cn1cnc2c(N3CCOCC3)nc(C3CCNCC3)cc21 | -1.78
CC(C)n1cnc2c(N3CCCC3)nc(C3CCNCC3)cc21 | 5.44
Cc1ccc2c(n1)N(C)CCN(C(=O)NC(C)C)C2 | -6.1

Structure (SMILES) | cytotoxicity at 70.5 h [%]
O=C(N[C@@H]1CN(Cc2cccs2)[C@@H]2CCCO[C@@H]21)c1cscn1 | -9.16
CS(=O)(=O)N1CC[C@H]2O[C@H](C(=O)NCCc3ccccn3)CC[C@H]21 | -9.62
CCN(C)c1ncnc2c1CCN(C(=O)N(C)C)CC2 | 0.982
CN1CCC2(C=C(C(=O)N3CCCC3)c3ccccc32)CC1 | 1.49
O=C(Nc1ccccc1)C1CN(CC2CCOCC2)CC12CCOCC2 (configuration not stated) | 9.8
O=C(NCc1ccco1)[C@@H]1CC[C@@H]2[C@@H](CCN2CC2CC2)O1 | -6.24
O=C(c1cnccn1)N1CCN2C[C@H](OCc3ccccc3)C[C@H]2C1 | -1.37
CN1CCC2(COCc3cnc(-c4ccccc4)nc32)C1 (configuration not stated) | -6.86
CCN(C)c1ncnc2c1CCN(C(=O)COC)CC2 | -10.8
O=C(NCc1cccs1)c1nc2c(o1)CN(CC1CC1)C2 | -9.19
CN(C)C(=O)NC[C@@H]1OC[C@H]2CN(Cc3cccc(F)c3)CC[C@H]21 | -6.1
CCOCC1CN(S(=O)(=O)N(C)C)Cc2cnn(CC)c21 (configuration not stated) | -8.84
Cc1nc(CN2Cc3nccn3CC(COCC3CC3)C2)cs1 (configuration not stated) | -0.0625
CS(=O)(=O)N1Cc2cnn(CC3CC3)c2C(COCC2CC2)C1 (configuration not stated) | -6.21
O=C(N[C@H]1CN(Cc2cccs2)[C@@H]2CCCO[C@H]12)c1cccnc1 | -18.4
CCc1cnc(N2CC[C@H]3[C@H]2CC(=O)N3c2cccnc2)nc1 | -10
O=C(NCCc1ccncc1)[C@H]1CC[C@@H]2[C@@H](CCN2CC2CC2)O1 | -10.8
O=C(NCCc1ccncc1)[C@@H]1CC[C@@H]2[C@@H](CCN2Cc2ccco2)O1 | -9.71
Cc1nnc(N2C[C@@H](Oc3ccccn3)[C@H]3OCCC[C@H]32)s1 | -4.15
O=C(c1ccc[nH]1)N1CCc2c(COCc3ccncc3)cncc2C1 | -3.15
CCN(CC)CC1CN(Cc2nccs2)Cc2nccn2C1 (configuration not stated) | -9.42

Reference: ChEMBL document CHEMBL3507680, “University of Dundee, Gates Library screen for HepG2 cell viability”
